Laboratory results: article PMC11148045, “Structural basis for recognition of 26RFa by the pyroglutamylated RFamide peptide receptor” (Cell Discovery, 2024)
No end group written: not given here.

Legend:
QRFPR = conditions: cited from earlier work
Text: The 26RFa/QRFPR system plays critical roles in energy homeostasis. Uncovering the atomic details of 26RFa recognition and regulation of QRFPR is crucial for unraveling the function of QRFPR and developing effective treatments against obesity, diabetes, and eating disorders. […] The unique organization mode is crucial for the recognition of 26RFa by QRFPR. The C-terminal heptapeptide of 26R ...

QRFPR mutants [1] = target: T1, QRFPR mutants (Homo sapiens, UniProt Q96P65, N110A); assay: 26RFa-induced calcium mobilization, receptor mutants; type: cell-based; conditions: HEK293, QRFPR N110^23.49A; HEK293, Fluo-4; mean ± S.E.M., n ≥ 3
T1 construct: expressed in transfected cells; host or cells: HEK293, transient transfection by electroporation
T1 sequence (Q96P65 whole entry N110A): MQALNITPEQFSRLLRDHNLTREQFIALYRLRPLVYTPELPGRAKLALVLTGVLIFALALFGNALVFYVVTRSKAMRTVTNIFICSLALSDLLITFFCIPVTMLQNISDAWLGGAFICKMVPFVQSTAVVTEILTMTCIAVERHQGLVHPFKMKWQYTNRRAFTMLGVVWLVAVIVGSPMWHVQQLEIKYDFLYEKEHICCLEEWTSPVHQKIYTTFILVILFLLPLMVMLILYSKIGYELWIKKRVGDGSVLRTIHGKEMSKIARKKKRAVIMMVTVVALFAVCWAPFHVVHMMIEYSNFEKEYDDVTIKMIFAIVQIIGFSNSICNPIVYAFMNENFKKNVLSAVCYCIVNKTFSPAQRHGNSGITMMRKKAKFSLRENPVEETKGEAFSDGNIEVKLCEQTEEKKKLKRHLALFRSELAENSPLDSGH
Protocol: (§1) The gene encoding the WT QRFPR, PrPRR, KISS1R, NPFF1R, or NPFF2R was subcloned into the pcDNA3.0 vector with the addition of an N-terminal HA tag. All of the mutations used for functional studies were generated by QuickChange PCR and verified by DNA sequencing.
(§2) HEK293 cells were obtained from ATCC (Manassas, VA, USA) and cultured in DMEM supplemented with 10% (v/v) FBS, 100 mg/L penicillin, and 100 mg/L streptomycin in 5% CO2 at 37 °C. For transient transfection, ~2.5 × 10^6 cells were mixed with 2 µg plasmids in 200 µL transfection buffer, and electroporation was carried out with a Scientz-2C electroporation apparatus (Scientz Biotech, Ningbo, China). The experiments were carried out 24 h after transfection.
(§3) For QRFPR, PrRPR, and KISS1R, HEK293 cells transfected with WT receptor or its mutants were seeded at a density of 4 × 10^4 per well into 96-well culture plates and incubated for 24 h at 37 °C in 5% CO2. For NPFF1R and NPFF2R, plasmids were transfected into HEK293 cells stably expressing Gα16. On the next day, cells were incubated with 2 μmol/L Fluo-4 AM in HBSS supplemented with 5.6 mmol/L D-glucose and 250 μmol/L sulfinpyrazone at 37 °C for 45 min. After washing, cells were added with 50 μL HBSS and incubated at room temperature for 10 min, then 25 μL agonist buffer was dispensed into the well using a FlexStation III microplate reader (Molecular Devices), and intracellular calcium change was recorded at an excitation wavelength of 485 nm and an emission wavelength of 525 nm. EC50 and Emax values for each curve were calculated by Prism 8.0 software (GraphPad Software).

QRFPR mutants [2] = target: T2, QRFPR mutants (Homo sapiens, UniProt Q96P65); assay: as above; type: cell-based; conditions: HEK293, QRFPR Δ1-18; HEK293, Fluo-4; mean ± S.E.M., n ≥ 3
T2 construct: expressed in transfected cells; host or cells: HEK293, transient transfection by electroporation
T2 sequence (Q96P65 19-431, stated change not applied): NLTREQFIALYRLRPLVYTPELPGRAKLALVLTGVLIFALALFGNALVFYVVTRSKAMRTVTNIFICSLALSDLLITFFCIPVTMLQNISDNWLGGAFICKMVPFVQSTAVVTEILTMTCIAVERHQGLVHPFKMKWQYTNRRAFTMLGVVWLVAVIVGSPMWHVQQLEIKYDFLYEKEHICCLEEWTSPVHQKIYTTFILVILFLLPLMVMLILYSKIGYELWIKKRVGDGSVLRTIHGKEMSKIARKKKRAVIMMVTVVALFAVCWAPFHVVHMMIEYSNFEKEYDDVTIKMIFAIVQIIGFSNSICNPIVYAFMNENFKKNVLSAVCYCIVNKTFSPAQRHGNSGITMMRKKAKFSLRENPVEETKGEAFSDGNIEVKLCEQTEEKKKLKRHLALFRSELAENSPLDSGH
Protocol: as §1, §2, §3

QRFPR mutants [3] = target: T3, QRFPR mutants (Homo sapiens, UniProt Q96P65, P122A); assay: as above; type: cell-based; conditions: HEK293, QRFPR P122^3.29A; HEK293, Fluo-4; mean ± S.E.M., n ≥ 3
T3 construct: expressed in transfected cells; host or cells: HEK293, transient transfection by electroporation
T3 sequence (Q96P65 whole entry P122A): as the sequence (Q96P65 whole entry N110A) above, with A110N, P122A counted along it
Protocol: as §1, §2, §3

QRFPR mutants [4] = target: T4, QRFPR mutants (Homo sapiens, UniProt Q96P65, C98A); assay: as above; type: cell-based; conditions: HEK293, QRFPR C98^2.57A; HEK293, Fluo-4; mean ± S.E.M., n ≥ 3
T4 construct: expressed in transfected cells; host or cells: HEK293, transient transfection by electroporation
T4 sequence (Q96P65 whole entry C98A): as the sequence (Q96P65 whole entry N110A) above, with C98A, A110N counted along it
Protocol: as §1, §2, §3

QRFPR mutants [5] = target: T5, QRFPR mutants (Homo sapiens, UniProt Q96P65, C118A); assay: as above; type: cell-based; conditions: HEK293, QRFPR C118^3.25A; HEK293, Fluo-4; mean ± S.E.M., n ≥ 3
T5 construct: expressed in transfected cells; host or cells: HEK293, transient transfection by electroporation
T5 sequence (Q96P65 whole entry C118A): as the sequence (Q96P65 whole entry N110A) above, with A110N, C118A counted along it
Protocol: as §1, §2, §3

QRFPR mutants [6] = target: T6, QRFPR mutants (Homo sapiens, UniProt Q96P65, F192A); assay: as above; type: cell-based; conditions: HEK293, QRFPR F192^ECL2A; HEK293, Fluo-4; mean ± S.E.M., n ≥ 3
T6 construct: expressed in transfected cells; host or cells: HEK293, transient transfection by electroporation
T6 sequence (Q96P65 whole entry F192A): as the sequence (Q96P65 whole entry N110A) above, with A110N, F192A counted along it
Protocol: as §1, §2, §3

QRFPR mutants [7] = target: T7, QRFPR mutants (Homo sapiens, UniProt Q96P65, F289A); assay: as above; type: cell-based
T7 construct: expressed in transfected cells; host or cells: HEK293, transient transfection by electroporation
T7 sequence (Q96P65 whole entry F289A): as the sequence (Q96P65 whole entry N110A) above, with A110N, F289A counted along it
Protocol: as §1, §2, §3

QRFPR mutants [8] = target: T8, QRFPR mutants (Homo sapiens, UniProt Q96P65, M180A); assay: as above; type: cell-based; conditions: HEK293, QRFPR M180^4.60A; HEK293, Fluo-4; mean ± S.E.M., n ≥ 3
T8 construct: expressed in transfected cells; host or cells: HEK293, transient transfection by electroporation
T8 sequence (Q96P65 whole entry M180A): as the sequence (Q96P65 whole entry N110A) above, with A110N, M180A counted along it
Protocol: as §1, §2, §3

QRFPR mutants [9] = target: T9, QRFPR mutants (Homo sapiens, UniProt Q96P65, W205A); assay: as above; type: cell-based; conditions: HEK293, QRFPR W205^ECL2A; HEK293, Fluo-4; mean ± S.E.M., n ≥ 3
T9 construct: expressed in transfected cells; host or cells: HEK293, transient transfection by electroporation
T9 sequence (Q96P65 whole entry W205A): as the sequence (Q96P65 whole entry N110A) above, with A110N, W205A counted along it
Protocol: as §1, §2, §3

QRFPR mutants [10] = target: T10, QRFPR mutants (Homo sapiens, UniProt Q96P65, Y190A); assay: as above; type: cell-based; conditions: HEK293, QRFPR Y190^ECL2A; HEK293, Fluo-4; mean ± S.E.M., n ≥ 3
T10 construct: expressed in transfected cells; host or cells: HEK293, transient transfection by electroporation
T10 sequence (Q96P65 whole entry Y190A): as the sequence (Q96P65 whole entry N110A) above, with A110N, Y190A counted along it
Protocol: as §1, §2, §3

QRFPR mutants [11] = target: T11, QRFPR mutants (Homo sapiens, UniProt Q96P65, L202A); assay: as above; type: cell-based; conditions: HEK293, QRFPR L202^45.51A; HEK293, Fluo-4; mean ± S.E.M., n ≥ 3
T11 construct: expressed in transfected cells; host or cells: HEK293, transient transfection by electroporation
T11 sequence (Q96P65 whole entry L202A): as the sequence (Q96P65 whole entry N110A) above, with A110N, L202A counted along it
Protocol: as §1, §2, §3

QRFPR mutants [12] = target: T12, QRFPR mutants (Homo sapiens, UniProt Q96P65, T102A); assay: as above; type: cell-based; conditions: HEK293, QRFPR T102^2.60A; HEK293, Fluo-4; mean ± S.E.M., n ≥ 3
T12 construct: expressed in transfected cells; host or cells: HEK293, transient transfection by electroporation
T12 sequence (Q96P65 whole entry T102A): as the sequence (Q96P65 whole entry N110A) above, with T102A, A110N counted along it
Protocol: as §1, §2, §3

QRFPR mutants [13] = target: T13, QRFPR mutants (Homo sapiens, UniProt Q96P65, Y214A); assay: as above; type: cell-based; conditions: HEK293, QRFPR Y214^5.38A; HEK293, Fluo-4; mean ± S.E.M., n ≥ 3
T13 construct: expressed in transfected cells; host or cells: HEK293, transient transfection by electroporation
T13 sequence (Q96P65 whole entry Y214A): as the sequence (Q96P65 whole entry N110A) above, with A110N, Y214A counted along it
Protocol: as §1, §2, §3

QRFPR mutants [14] = target: T14, QRFPR mutants (Homo sapiens, UniProt Q96P65, V129A); assay: as above; type: cell-based; conditions: HEK293, QRFPR V129^3.36A; HEK293, Fluo-4; mean ± S.E.M., n ≥ 3
T14 construct: expressed in transfected cells; host or cells: HEK293, transient transfection by electroporation
T14 sequence (Q96P65 whole entry V129A): as the sequence (Q96P65 whole entry N110A) above, with A110N, V129A counted along it
Protocol: as §1, §2, §3

QRFPR mutants [15] = target: T15, QRFPR mutants (Homo sapiens, UniProt Q96P65, V101A); assay: as above; type: cell-based; conditions: HEK293, QRFPR V101^2.59A; HEK293, Fluo-4; mean ± S.E.M., n ≥ 3
T15 construct: expressed in transfected cells; host or cells: HEK293, transient transfection by electroporation
T15 sequence (Q96P65 whole entry V101A): as the sequence (Q96P65 whole entry N110A) above, with V101A, A110N counted along it
Protocol: as §1, §2, §3

QRFPR (WT) = target: T16, QRFPR (WT) (Homo sapiens, UniProt Q96P65); assay: 26RFa-induced calcium mobilization, wild-type receptor; type: cell-based; conditions: HEK293, Fluo-4 AM, ex 485/em 525 nm, mean ± S.E.M., at least three independent experiments
T16 construct: expressed in transfected cells; host or cells: HEK293, transient transfection by electroporation
T16 sequence (Q96P65 whole entry): as the sequence (Q96P65 whole entry N110A) above, with A110N counted along it
Protocol: as §1, §2
as §3, with “For NPFF1R and NPFF2R, plasmids were transfected into HEK293 cells stably expressing Gα16. On the next day, cells were incubated with 2 μmol/L Fluo-4 AM in HBSS supplemented with 5.6 mmol/L D-glucose and 250 μmol/L sulfinpyrazone at 37 °C for 45 min.” left out

**Q.** With ASGPLGTLAEELSSYSRRKGGFSFRF-NH2 [26RFa] as the substance, how does the “selectivity for QRFPR” value (QRFPR) read?
**A.** Its value is “high selectivity of 26RFa for QRFPR”.

**Q.** What about the Emax (QRFPR mutants [1]) of the same substance?
**A.** The Emax was 98.6 ± 2.3%.

**Q.** What about the Emax (QRFPR mutants [2]) of the same substance?
**A.** Its Emax is 53.2 ± 0.75%.

**Q.** And the Emax (QRFPR mutants [3])?
**A.** Its Emax is 96.7 ± 1.4%.

**Q.** What about the Emax (QRFPR mutants [4]) of the same substance?
**A.** Its Emax is 48.4 ± 0.88%.

**Q.** What about the Emax (QRFPR mutants [5]) of the same substance?
**A.** The Emax was 1.43 ± 0.55%.

**Q.** And the Emax (QRFPR mutants [6])?
**A.** The Emax was 87.4 ± 0.93%.

**Q.** What about the Emax (QRFPR mutants [7]; HEK293, QRFPR F289^6.51A, HEK293, Fluo-4, mean ± S.E.M., n ≥ 3) of the same substance?
**A.** Its Emax is 54.4 ± 1.4%.

**Q.** What about the “effect of mutation on 26RFa activity” value (QRFPR mutants [7]; QRFPR F289^6.51 to alanine) of the same substance?
**A.** The value was “dramatic decrease in the activity of 26RFa”.

**Q.** What about the Emax (QRFPR mutants [8]) of the same substance?
**A.** The Emax was 93.3 ± 1%.

**Q.** And the Emax (QRFPR mutants [9])?
**A.** Its Emax is 2.58 ± 1.2%.

**Q.** And the Emax (QRFPR mutants [10])?
**A.** Its Emax is 23.6 ± 0.22%.

**Q.** And the Emax (QRFPR mutants [11])?
**A.** Its Emax is 101 ± 2.3%.

**Q.** What about the Emax (QRFPR mutants [12]) of the same substance?
**A.** The Emax was 94 ± 1.4%.

**Q.** And the Emax (QRFPR mutants [13])?
**A.** Its Emax is 1.42 ± 0.7%.

**Q.** And the Emax (QRFPR mutants [14])?
**A.** Its Emax is 42.7 ± 0.71%.

**Q.** And the Emax (QRFPR mutants [15])?
**A.** Its Emax is 102 ± 1.7%.

**Q.** What about the Emax (QRFPR (WT)) of the same substance?
**A.** The Emax was 100 ± 1%.
